Data as given in PubChem BioAssay AID2060894 (Molecular Pharmacology Branch, DTP, NCI, 2025).

System: K12877-001-R-J1-PDC complex spheroid viability
Assay: Anticancer human tumor K12877-001-R-J1-PDC patient-derived lung adenocarcinoma cell line growth inhibition [RAS]
Settings: for viability, T/C: stronger effect = lower value; active = viability on the fitted dose curve at most 10% of control; inactive = the rest
Summary of the method: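 Multi-cell-type spheroids: tumor cells plus HUVEC endothelial cells and mesenchymal stem cells. RAS-pathway inhibitors were combined with targeted agents, each dosed in half-log steps down from clinical Cmax, or from 10 microM when Cmax was unknown.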

[1] = curve of first compound, second compound 0.0316 µM
[2] = curve of first compound, second compound 0.1 µM
[3] = curve of first compound, second compound 0.316 µM
[4] = curve of first compound, second compound 1 µM
[5] = second compound 0.0316 µM, first compound 0.0316 µM
[6] = second compound 0.0316 µM, first compound 0.1 µM
[7] = second compound 0.0316 µM, first compound 0.316 µM
[8] = second compound 0.0316 µM, first compound 1 µM
[9] = second compound 0.0316 µM, first compound 3.16 µM
[10] = second compound 0.0316 µM, first compound 10 µM
[11] = second compound 0.1 µM, first compound 0.0316 µM
[12] = second compound 0.1 µM, first compound 0.1 µM
[13] = second compound 0.1 µM, first compound 0.316 µM
[14] = second compound 0.1 µM, first compound 1 µM
[15] = second compound 0.1 µM, first compound 3.16 µM
[16] = second compound 0.1 µM, first compound 10 µM
[17] = second compound 0.316 µM, first compound 0.0316 µM
[18] = second compound 0.316 µM, first compound 0.1 µM
[19] = second compound 0.316 µM, first compound 0.316 µM
[20] = second compound 0.316 µM, first compound 1 µM
[21] = second compound 0.316 µM, first compound 3.16 µM
[22] = second compound 0.316 µM, first compound 10 µM
[23] = second compound 1 µM, first compound 0.0316 µM
[24] = second compound 1 µM, first compound 0.1 µM
[25] = second compound 1 µM, first compound 0.316 µM
[26] = second compound 1 µM, first compound 1 µM
[27] = second compound 1 µM, first compound 3.16 µM
[28] = second compound 1 µM, first compound 10 µM
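Also: spheroids exposed to agents for one week before readout.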
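For viability, T/C in this document: tumour cells co-cultured with HUVEC and mesenchymal stem cells in spheroids.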

CCC(CC)c1cc(NC2CCC(N)C2)n2nccc2n1 (stereo not drawn)
inactive: viability, T/C (compound 0.0316 µM) 104% [middle of 4 runs] | viability, T/C (compound 0.1 µM) 87.1% [middle of 4 runs] | viability, T/C (compound 0.316 µM) 103% [middle of 4 runs] | viability, T/C (compound 1 µM) 86.7% [middle of 4 runs]
active: viability, T/C (compound 3.16 µM) 2.99% [middle of 4 runs] | viability, T/C (compound 10 µM) 1.41% [middle of 4 runs]
1.65 µM [middle of 4 runs]: IC50 (curve of compound)

C=CC(=O)Nc1cc(Nc2nccc(-c3cn(C)c4ccccc34)n2)c(OC)cc1N(C)CCN(C)C + CCn1c(-c2cccnc2C(C)OC)c2c3cc(ccc31)N1CCOC(CC(NC(=O)C(C(C)C)N(C)C(=O)C3(F)CCN(C(=O)C#CC(C)(C)N(C)C)CC3)C(=O)N3CCCC(N3)C(=O)OCC(C)(C)C2)C1
inactive: viability, T/C (second compound 0.000949 µM, first compound 0.00316 µM) 90.4% | viability, T/C (second compound 0.000949 µM, first compound 0.01 µM) 75.9% | viability, T/C (second compound 0.000949 µM, first compound 0.0316 µM) 85.4% | viability, T/C (second compound 0.000949 µM, first compound 0.1 µM) 78.5% | viability, T/C (second compound 0.000949 µM, first compound 0.316 µM) 78% | viability, T/C (second compound 0.000949 µM, first compound 1 µM) 69.8% | viability, T/C (second compound 0.003 µM, first compound 0.00316 µM) 78.2% | viability, T/C (second compound 0.003 µM, first compound 0.01 µM) 75.2% | viability, T/C (second compound 0.003 µM, first compound 0.0316 µM) 69.3% | viability, T/C (second compound 0.003 µM, first compound 0.1 µM) 70.5% | viability, T/C (second compound 0.003 µM, first compound 0.316 µM) 74.3% | viability, T/C (second compound 0.003 µM, first compound 1 µM) 70.3% | viability, T/C (second compound 0.00949 µM, first compound 0.00316 µM) 82.3% | viability, T/C (second compound 0.00949 µM, first compound 0.01 µM) 65% | viability, T/C (second compound 0.00949 µM, first compound 0.0316 µM) 75.1% | viability, T/C (second compound 0.00949 µM, first compound 0.1 µM) 71% | viability, T/C (second compound 0.00949 µM, first compound 0.316 µM) 71.6% | viability, T/C (second compound 0.00949 µM, first compound 1 µM) 62.7% | viability, T/C (second compound 0.03 µM, first compound 0.00316 µM) 80.5% | viability, T/C (second compound 0.03 µM, first compound 0.01 µM) 73.2% | viability, T/C (second compound 0.03 µM, first compound 0.0316 µM) 78.7% | viability, T/C (second compound 0.03 µM, first compound 0.1 µM) 79% | viability, T/C (second compound 0.03 µM, first compound 0.316 µM) 64.5% | viability, T/C (second compound 0.03 µM, first compound 1 µM) 65% | viability, T/C (second compound 0.0949 µM, first compound 0.00316 µM) 67.2% | viability, T/C (second compound 0.0949 µM, first compound 0.01 µM) 72.7% | viability, T/C (second compound 0.0949 µM, first compound 0.0316 µM) 74% | viability, T/C (second compound 0.0949 µM, first compound 0.1 µM) 69.5% | viability, T/C (second compound 0.0949 µM, first compound 0.316 µM) 63.5% | viability, T/C (second compound 0.0949 µM, first compound 1 µM) 48.5% | viability, T/C (second compound 0.3 µM, first compound 0.00316 µM) 69.8% | viability, T/C (second compound 0.3 µM, first compound 0.01 µM) 67% | viability, T/C (second compound 0.3 µM, first compound 0.0316 µM) 71.2% | viability, T/C (second compound 0.3 µM, first compound 0.1 µM) 70.2% | viability, T/C (second compound 0.3 µM, first compound 0.316 µM) 58.7% | viability, T/C (second compound 0.3 µM, first compound 1 µM) 52.8%
> 1 µM: IC50 (curve of first compound, second compound 0.000949 µM) | IC50 (curve of first compound, second compound 0.003 µM) | IC50 (curve of first compound, second compound 0.00949 µM) | IC50 (curve of first compound, second compound 0.03 µM) | IC50 (curve of first compound, second compound 0.0949 µM) | IC50 (curve of first compound, second compound 0.3 µM)

Cc1nc(N2CCC3(CC2)COC(C)C3N)c(CO)nc1Sc1ccnc(N)c1Cl (stereo not drawn) + C#Cc1c(F)ccc2cc(O)cc(-c3ncc4c(N5CC6CCC(C5)N6)nc(OCC56CCCN5CC(F)C6)nc4c3F)c12
inactive: viability, T/C [5] 94.3% | viability, T/C [6] 97% | viability, T/C [7] 99% | viability, T/C [8] 95.1% | viability, T/C [9] 103% | viability, T/C [10] 77.5% | viability, T/C [11] 109% | viability, T/C [12] 110% | viability, T/C [13] 92% | viability, T/C [14] 87.7% | viability, T/C [15] 93.5% | viability, T/C [16] 84.1% | viability, T/C [17] 107% | viability, T/C [18] 98.8% | viability, T/C [19] 91.2% | viability, T/C [20] 92.9% | viability, T/C [21] 78.5% | viability, T/C [22] 65.7% | viability, T/C [23] 101% | viability, T/C [24] 92.5% | viability, T/C [25] 93.1% | viability, T/C [26] 95.7% | viability, T/C [27] 82.9% | viability, T/C [28] 69.5% | viability, T/C (second compound 3.16 µM, first compound 0.0316 µM) 100% | viability, T/C (second compound 3.16 µM, first compound 0.1 µM) 94% | viability, T/C (second compound 3.16 µM, first compound 0.316 µM) 92.4% | viability, T/C (second compound 3.16 µM, first compound 1 µM) 79.7% | viability, T/C (second compound 3.16 µM, first compound 3.16 µM) 79.7% | viability, T/C (second compound 3.16 µM, first compound 10 µM) 69.7% | viability, T/C (second compound 10 µM, first compound 0.0316 µM) 93.6% | viability, T/C (second compound 10 µM, first compound 0.1 µM) 86.1% | viability, T/C (second compound 10 µM, first compound 0.316 µM) 83.9% | viability, T/C (second compound 10 µM, first compound 1 µM) 83.4% | viability, T/C (second compound 10 µM, first compound 3.16 µM) 86.9% | viability, T/C (second compound 10 µM, first compound 10 µM) 84.8%
> 10 µM: IC50 [1] | IC50 [2] | IC50 [3] | IC50 [4] | IC50 (curve of first compound, second compound 3.16 µM) | IC50 (curve of first compound, second compound 10 µM)

CC(C)NCC(C(=O)N1CCN(c2ncnc3c2C(C)CC3O)CC1)c1ccc(Cl)cc1 (stereo not drawn) + C=CC(=O)N1CCN(c2nc(OCC3CCCN3C)nc3c(F)c(-c4nc(N)cc(C)c4C(F)(F)F)c(Cl)cc23)C(C)C1
1.4 µM: IC50 [1]
1.56 µM: IC50 (curve of first compound, second compound 0.01 µM)
2.24 µM: IC50 (curve of first compound, second compound 0.00316 µM)
0.934 µM: IC50 [3]
1.54 µM: IC50 [4]
1.42 µM: IC50 [2]
inactive: viability, T/C (second compound 0.00316 µM, first compound 0.0316 µM) 87.9% | viability, T/C (second compound 0.00316 µM, first compound 0.1 µM) 86.1% | viability, T/C (second compound 0.00316 µM, first compound 0.316 µM) 74.5% | viability, T/C (second compound 0.00316 µM, first compound 1 µM) 78.4% | viability, T/C (second compound 0.00316 µM, first compound 3.16 µM) 38% | viability, T/C (second compound 0.00316 µM, first compound 10 µM) 22% | viability, T/C (second compound 0.01 µM, first compound 0.0316 µM) 82.8% | viability, T/C (second compound 0.01 µM, first compound 0.1 µM) 89.2% | viability, T/C (second compound 0.01 µM, first compound 0.316 µM) 68.8% | viability, T/C (second compound 0.01 µM, first compound 1 µM) 65.8% | viability, T/C (second compound 0.01 µM, first compound 3.16 µM) 30.2% | viability, T/C (second compound 0.01 µM, first compound 10 µM) 18% | viability, T/C [5] 85.5% | viability, T/C [6] 90.6% | viability, T/C [7] 73.3% | viability, T/C [8] 63.3% | viability, T/C [9] 23.7% | viability, T/C [10] 17.6% | viability, T/C [11] 84% | viability, T/C [12] 71.5% | viability, T/C [13] 82.4% | viability, T/C [14] 63.2% | viability, T/C [15] 20.2% | viability, T/C [16] 16.7% | viability, T/C [17] 79.9% | viability, T/C [18] 79.9% | viability, T/C [19] 68.2% | viability, T/C [20] 51% | viability, T/C [21] 23.5% | viability, T/C [22] 19.5% | viability, T/C [23] 87.8% | viability, T/C [24] 75.7% | viability, T/C [25] 84.4% | viability, T/C [26] 58.6% | viability, T/C [27] 33.9% | viability, T/C [28] 20.9%
